These results are taken from ChEMBL document CHEMBL1128205, “Design and synthesis of conformationally constrained analogues of 4-(3-butoxy-4-methoxybenzyl)imidazolidin-2-one (Ro 20-1724) as potent inhibitors of cAMP-specific phosphodiesterase” (J Med Chem, 1995).

As usually defined, the Ki is the dissociation constant of the complex between target and ligand, obtained from inhibition or displacement. Read a low Ki as higher affinity. What is called IC50 is the concentration that inhibits the measured activity by half.

The target in assay [1] is 3',5'-cyclic-AMP phosphodiesterase 4B (Homo sapiens, UniProt Q07343). The assay is described as follows: Inhibition of human Phosphodiesterase 4B.
Chain of 3',5'-cyclic-AMP phosphodiesterase 4B (Q07343 whole entry): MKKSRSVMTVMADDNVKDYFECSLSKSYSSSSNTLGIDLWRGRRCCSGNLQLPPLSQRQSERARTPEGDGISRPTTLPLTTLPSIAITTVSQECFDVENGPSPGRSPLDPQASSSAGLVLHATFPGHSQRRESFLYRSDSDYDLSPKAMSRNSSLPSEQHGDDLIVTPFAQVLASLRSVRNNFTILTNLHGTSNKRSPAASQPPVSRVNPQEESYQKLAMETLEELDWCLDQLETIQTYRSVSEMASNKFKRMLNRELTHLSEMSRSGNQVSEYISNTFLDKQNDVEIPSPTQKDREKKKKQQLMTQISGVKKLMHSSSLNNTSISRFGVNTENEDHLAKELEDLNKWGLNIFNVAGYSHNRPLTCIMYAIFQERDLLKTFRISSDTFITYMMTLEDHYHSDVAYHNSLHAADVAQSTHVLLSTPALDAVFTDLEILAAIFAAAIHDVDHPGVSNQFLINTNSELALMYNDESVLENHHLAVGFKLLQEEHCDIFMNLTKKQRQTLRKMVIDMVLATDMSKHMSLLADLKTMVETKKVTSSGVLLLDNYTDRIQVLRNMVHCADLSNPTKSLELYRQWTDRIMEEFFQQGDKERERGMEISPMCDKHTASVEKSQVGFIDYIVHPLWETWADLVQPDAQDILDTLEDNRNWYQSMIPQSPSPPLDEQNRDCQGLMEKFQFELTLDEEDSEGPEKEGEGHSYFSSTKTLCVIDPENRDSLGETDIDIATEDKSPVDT
Assay [2] is filed under the species Homo sapiens. As to the kind of experiment: Inhibition of LPS-induced TNF-alpha secretion from purified human peripheral blood monocytes. The format is functional.

In assay [1], `COc1ccc([C@H]2CCN3C(=O)CC[C@H]23)cc1OC1CCCC1` displayed a Ki of 63 nM. `COc1ccc([C@H]2CCN3C(=O)CC[C@@H]23)cc1OC1CCCC1` yielded a Ki in assay [1] of 338 nM. `COc1ccc(CC2CNC(=O)N2)cc1OC1CCCC1` (stereo not given): the affinity in assay [1], expressed as Ki, was 447 nM. `COc1ccc([C@H]2CCN3C(=O)NC[C@H]23)cc1OC1CCCC1` gave a Ki in assay [1] of 27 nM. The same compound gave an IC50 in assay [2] of 290 nM. With `COc1ccc(C2CNC(=O)C2)cc1OC1CCCC1` (stereo not given) [ROLIPRAM], in assay [2], the half-inhibitory concentration (IC50) came out at 320 nM. `COc1ccc([C@H]2CCN3C(=O)NC[C@@H]23)cc1OC1CCCC1` displayed an inhibition constant (Ki) in assay [1] of 583 nM. On the same count and under the same terms, to `COc1ccc([C@H]2CCN3C(=O)OC[C@H]23)cc1OC1CCCC1` belongs 70 nM.

For the compound `CCCCOc1cc(CC2CNC(=O)N2)ccc1OC` (stereo not given) [RO-201724], the midpoint of inhibition in assay [2], the IC50, lay at 1800 nM.

Take `COc1ccc([C@H]2CCN3C(=O)OC[C@@H]23)cc1OC1CCCC1`: the Ki in assay [1] was found to be 282 nM.
